Values of other authors, collected in patent US20130171093A1, “HEALING POWDER AND METHOD OF USE THEREOF” (priority 2006, published 2013).

Legend:
[1] = system: full thickness wounds in the backs of pigs; details: clean, non-infected pig wounds under Opsite
[2] = system: acute mediastinitis wounds; details: 19 patients, wounds packed every 3 to 4 hours

Compound	wound healing / granulation tissue formation versus wounds covered with Opsite alone [1]	debridement of the wound [2]	eradication of bacterial infection, average time of treatment [2]
N=C(NCCCCCCNC(=N)NC(=N)Nc1ccc(Cl)cc1)NC(=N)Nc1ccc(Cl)cc1.O=C(O)[C@H](O)[C@@H](O)[C@H](O)[C@H](O)CO.O=C(O)[C@H](O)[C@@H](O)[C@H](O)[C@H](O)CO [chlorhexidine gluconate 0.2%, chlorhexidine gluconate]	delayed healing		
OC[C@H]1O[C@@](CO)(O[C@H]2O[C@H](CO)[C@@H](O)[C@H](O)[C@H]2O)[C@@H](O)[C@@H]1O [granular sugar, sucrose]		near complete debridement	7.6 days
